Data reported in paper PMC3293798, “Amino Acid Residues Contributing to Function of the Heteromeric Insect Olfactory Receptor Complex” (PLoS ONE, 2012).
Positions count from the first letter of the chain named. pEC50: −log10 of the molar value. One block for each compound: values may come before it.

Key:
Type in all cases: cell-based
BmOr-1-BmOrco [1] = molecular target: T1, BmOr-1-BmOrco (Bombyx mori, UniProt Q5WA61); assay: two-electrode voltage clamp, Xenopus oocytes, bombykol response after MTSET; conditions: covalent; Cys modification of native Cys suggested; 60 s pretreatment; bombykol 1 µM
T1 construct: full-length cRNAs from modified pSPUTK vector, co-injected (25 ng each) in Xenopus laevis oocytes; heteromer of unknown stoichiometry; with Odorant receptor coreceptor
T1 sequence (Q5WA61 1-430): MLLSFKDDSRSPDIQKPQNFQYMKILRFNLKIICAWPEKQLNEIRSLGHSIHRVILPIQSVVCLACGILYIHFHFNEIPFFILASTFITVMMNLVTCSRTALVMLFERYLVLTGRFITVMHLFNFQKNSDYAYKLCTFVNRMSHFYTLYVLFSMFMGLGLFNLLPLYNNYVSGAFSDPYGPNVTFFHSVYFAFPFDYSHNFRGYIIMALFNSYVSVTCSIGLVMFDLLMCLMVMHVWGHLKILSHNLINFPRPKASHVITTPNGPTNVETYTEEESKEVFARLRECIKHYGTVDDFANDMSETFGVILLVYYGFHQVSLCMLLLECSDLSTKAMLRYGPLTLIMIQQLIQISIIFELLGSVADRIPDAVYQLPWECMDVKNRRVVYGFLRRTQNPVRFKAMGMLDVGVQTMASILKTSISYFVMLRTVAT
T1 sequence (Q7YT34 1-472 partner): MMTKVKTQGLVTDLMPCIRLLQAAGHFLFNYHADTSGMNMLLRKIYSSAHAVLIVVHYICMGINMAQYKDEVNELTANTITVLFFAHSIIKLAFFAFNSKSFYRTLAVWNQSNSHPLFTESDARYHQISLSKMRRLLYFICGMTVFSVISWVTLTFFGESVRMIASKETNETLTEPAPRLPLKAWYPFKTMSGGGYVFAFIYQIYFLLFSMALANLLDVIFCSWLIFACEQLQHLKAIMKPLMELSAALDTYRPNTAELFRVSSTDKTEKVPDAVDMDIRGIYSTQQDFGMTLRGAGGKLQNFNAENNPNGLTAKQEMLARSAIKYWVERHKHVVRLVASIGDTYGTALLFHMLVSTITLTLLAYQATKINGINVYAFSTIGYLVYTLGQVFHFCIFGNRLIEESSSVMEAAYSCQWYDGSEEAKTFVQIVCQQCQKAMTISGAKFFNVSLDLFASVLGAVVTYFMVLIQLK

[2] = molecular target: T2, Or47a with Drosophila Orco (Drosophila melanogaster, UniProt P81921); assay: two-electrode voltage clamp, Xenopus oocytes, current-voltage curves; conditions: agonist; 1 mM odorant
T2 construct: full-length cRNAs co-injected in Xenopus laevis oocytes; heteromer of unknown stoichiometry; with Odorant receptor coreceptor
T2 sequence (P81921 1-385): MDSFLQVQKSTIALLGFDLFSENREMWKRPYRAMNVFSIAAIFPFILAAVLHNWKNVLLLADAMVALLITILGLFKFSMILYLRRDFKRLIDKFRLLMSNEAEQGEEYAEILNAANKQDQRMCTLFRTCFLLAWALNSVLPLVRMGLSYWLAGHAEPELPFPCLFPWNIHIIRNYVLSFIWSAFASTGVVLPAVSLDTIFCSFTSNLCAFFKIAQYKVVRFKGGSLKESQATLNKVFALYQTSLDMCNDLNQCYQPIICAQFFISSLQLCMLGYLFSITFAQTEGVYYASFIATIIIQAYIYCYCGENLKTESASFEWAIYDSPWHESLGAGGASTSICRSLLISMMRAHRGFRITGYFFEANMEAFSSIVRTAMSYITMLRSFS
T2 sequence (Q9VNB5 1-486 partner): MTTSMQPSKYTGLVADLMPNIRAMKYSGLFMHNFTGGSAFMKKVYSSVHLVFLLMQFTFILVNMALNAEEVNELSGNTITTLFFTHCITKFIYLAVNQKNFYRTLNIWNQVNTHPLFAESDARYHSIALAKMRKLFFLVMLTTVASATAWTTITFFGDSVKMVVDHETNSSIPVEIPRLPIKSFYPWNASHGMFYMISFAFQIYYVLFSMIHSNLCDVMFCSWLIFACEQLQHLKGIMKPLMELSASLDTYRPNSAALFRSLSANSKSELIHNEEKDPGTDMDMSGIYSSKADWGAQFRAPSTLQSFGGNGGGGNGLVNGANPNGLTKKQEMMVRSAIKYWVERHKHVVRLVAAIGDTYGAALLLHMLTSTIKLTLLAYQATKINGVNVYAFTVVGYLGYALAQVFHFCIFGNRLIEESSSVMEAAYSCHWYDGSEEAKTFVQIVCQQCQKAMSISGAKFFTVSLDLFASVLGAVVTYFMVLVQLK

[3] = molecular target: T3, Or22a with Drosophila Orco (Drosophila melanogaster, UniProt P81909); assay: as above; conditions: agonist; 1 mM odorant
T3 construct: full-length cRNAs co-injected in Xenopus laevis oocytes; heteromer of unknown stoichiometry; with Odorant receptor coreceptor
T3 sequence (P81909 1-397): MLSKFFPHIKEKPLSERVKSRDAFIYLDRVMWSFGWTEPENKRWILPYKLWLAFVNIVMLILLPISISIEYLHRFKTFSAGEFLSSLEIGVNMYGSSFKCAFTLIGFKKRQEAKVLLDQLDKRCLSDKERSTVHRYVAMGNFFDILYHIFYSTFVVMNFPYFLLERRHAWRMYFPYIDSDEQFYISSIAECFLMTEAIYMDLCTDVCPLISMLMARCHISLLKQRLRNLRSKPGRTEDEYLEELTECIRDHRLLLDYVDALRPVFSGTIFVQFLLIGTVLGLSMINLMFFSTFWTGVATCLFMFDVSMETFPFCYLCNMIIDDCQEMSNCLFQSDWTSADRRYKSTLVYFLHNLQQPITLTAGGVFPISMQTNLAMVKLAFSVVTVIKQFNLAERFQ
T3 sequence (Q9VNB5 1-486 partner): T2 sequence (Q9VNB5 1-486 partner)

BmOr-1-BmOrco [4] = molecular target: T1, BmOr-1-BmOrco; assay: two-electrode voltage clamp, Xenopus oocytes, dose-response
BmOr-1-BmOrco [5] = molecular target: T4, BmOr-1-BmOrco (Bombyx mori, UniProt Q5WA61, E356C); assay: as above
T4 construct: full-length cRNAs from modified pSPUTK vector, co-injected (25 ng each) in Xenopus laevis oocytes; heteromer of unknown stoichiometry; with Odorant receptor coreceptor
T4 sequence (Q5WA61 1-430 E356C): T1 sequence (Q5WA61 1-430) with E356C
T4 sequence (Q7YT34 1-472 partner): T1 sequence (Q7YT34 1-472 partner)

- % reduction of bombykol response at 2.5 mM (BmOr-1-BmOrco [1]): 46%
Compound: C[N+](C)(C)CCSS(C)(=O)=O [MTSET]

Compound: CCCCCOC(C)=O [pentyl acetate]
- two-electrode voltage clamp, Xenopus oocytes, current-voltage curves [2]: channels gated by their cognate ligands (ethyl butyrate, pentyl acetate

Compound: CCCC(=O)OCC [ethyl butyrate]
- two-electrode voltage clamp, Xenopus oocytes, current-voltage curves [3]: channels gated by their cognate ligands (ethyl butyrate, pentyl acetate

Compound: CCC/C=C\C=C\CCCCCCCCCO [Bombykol]
- pEC50 (BmOr-1-BmOrco [4]): 6.72
- pEC50 (BmOr-1-BmOrco [5]): 6.52
